Like-named read-outs stand apart in the source and are kept apart here.

Common to all, as to assay type: cell-based
For one test, the system named is S. aureus. Kind of test: microbe, parasite or virus in culture. The conditions noted are these: for MIC: Staphylococcus aureus, read-out: Equivalent MIC. As for the experimental part: (§1) With the determination of the sensitivity to antibiotics in mind, a suspension of 0.5 MF (Mac Farland) in physiological water was prepared from bacterial colonies selected in Petri dishes, reading being carried out on an ATB 1550 densitometer marketed by BIOMERIEUX (ATB trade mark). The suspension obtained was respectively diluted to 1/100th in the medium of the invention and Mueller-Hinton medium. VITEK cards (VITEK trade mark) containing different antibiotics at 10 concentrations were filled in vacuo into a VITEK apparatus marketed by BIOMERIEUX-VITEK. The cards were incubated for 12 hours in a VITEK incubator/reader marketed by BIOMERIEUX-VITEK. The growth kinetics were visualized and interpreted and an equivalent MIC was determined (equivalent MIC: equivalent minimum inhibitory concentration, that is to say the smallest concentration for which no bacterial growth is detected by the apparatus).
(§2) IST refers to the medium of the invention and MH signifies Mueller-Hinton medium.
(§3) *A range of concentration, of ratio 2, was tested for each antibiotic in
(§4) each of the abovementioned concentration margins.
(§5) S, I and R respectively signify "sensitive", "intermediate" and "resistant" with reference to the critical concentrations defined by the NCCLS (National Committee for Clinical Laboratory Standards).

In the next test the test system is S. epidermidis. The experiment in a line: microbe, parasite or virus in culture. The conditions noted are these: for MIC: Staphylococcus epidermidis, 12 h, read-out: Equivalent MIC. The procedure:
as §1, §2, §3, §4, §5

The next test deals with E. faecalis. Kind of test: Equivalent MIC of antibiotics in VITEK cards, gram-positive bacteria (Table 4). The following applies: for MIC: Enterococcus faecalis, 12 h. As for the experimental part:
as §1, §2, §3, §4, §5

The next test deals with K. pneumoniae. Kind of test: Equivalent MIC of antibiotics in VITEK cards, gram-negative bacteria (Table 3). The following applies: for MIC: Klebsiella pneumoniae, 12 h. As for the experimental part:
as §1, §2, §5

Another test deals with S. marcescens. The test is described as above. The following applies: for MIC: Serratia marcescens, 12 h, read-out: Equivalent MIC. The procedure:
as §1, §2, §5

The next test deals with P. aeruginosa. The description is as above. The following applies: for MIC: Pseudomonas aeruginosa, 12 h, read-out: Equivalent MIC. As for the experimental part:
as §1, §2, §5

Where [1] appears, read: ATCC29213, 12 h, ATCC 29213, IST medium.
Where [2] appears, read: ATCC29213, 12 h, ATCC 29213, MH medium.

As to `CC[C@H]1OC(=O)[C@H](C)[C@@H](O[C@H]2C[C@@](C)(OC)[C@@H](O)[C@H](C)O2)[C@H](C)[C@@H](O[C@@H]2O[C@H](C)C[C@H](N(C)C)[C@H]2O)[C@](C)(O)C[C@@H](C)C(=O)[C@H](C)[C@@H](O)[C@]1(C)O` [erythromicin], the “NCCLS Category” value with S. aureus (ATCC 29213, IST medium) is “S”; in the test with S. aureus (ATCC 29213, MH medium), “S”; with S. aureus (CDC 2194, IST medium) it was “R”; with S. aureus (CDC 2194, MH medium), “R”; with S. aureus (CDC 2215, IST medium), “S”; with S. aureus (CDC 2215, MH medium) it was “S”. For the same compound, the “NCCLS Category” value in the test with S. epidermidis (CDC 2024, IST medium) is on record as “S”; with S. epidermidis (CDC 2024, MH medium), “S”; in the test with S. epidermidis (CDC 2105, IST medium) it was “S”; with S. epidermidis (CDC 2105, MH medium), “S”; in the test on S. epidermidis (CDC 2234, IST medium) it was “R”; with S. epidermidis (CDC 2234, MH medium), “R”. Besides, the “NCCLS Category” value is reported as “R” in the test with E. faecalis (CDC 2073, IST medium); “R” in the test on E. faecalis (CDC 2073, MH medium); “I” in the test with E. faecalis (CDC 2230, IST medium); “I” in the test with E. faecalis (CDC 2230, MH medium). For the same compound, the MIC is above 32 µg/mL in the test on S. aureus (12 h, CDC 2194, IST medium); above 32 µg/mL with S. aureus (12 h, CDC 2194, MH medium); 0.5 µg/mL in the test with S. aureus (12 h, CDC 2215, IST medium); 0.5 µg/mL with S. aureus (12 h, CDC 2215, MH medium); 0.5 µg/mL in the test with S. aureus (setting [1]); 0.25 µg/mL in the test on S. aureus (setting [2]). Besides, the MIC in the test with S. epidermidis (CDC 2024, IST medium) is 0.5 µg/mL; in the test on S. epidermidis (CDC 2024, MH medium) it was 0.25 µg/mL; with S. epidermidis (CDC 2105, IST medium) it was 0.25 µg/mL; in the test on S. epidermidis (CDC 2105, MH medium) it was 0.25 µg/mL; in the test on S. epidermidis (CDC 2234, IST medium) it was above 32 µg/mL; in the test with S. epidermidis (CDC 2234, MH medium), above 32 µg/mL. Besides, the MIC in the test with E. faecalis (CDC 2073, IST medium) came to 16 µg/mL; in the test on E. faecalis (CDC 2073, MH medium), 16 µg/mL; in the test on E. faecalis (CDC 2230, IST medium), 4 µg/mL; with E. faecalis (CDC 2230, MH medium) it was 4 µg/mL.

Take `CC1COc2c(N3CCN(C)CC3)c(F)cc3c(=O)c(C(=O)O)cn1c23` (centres unmarked) [ofloxacin]: the “NCCLS Category” value is reported as “S” in the test on K. pneumoniae (API 88.03.111, IST medium); “S” with K. pneumoniae (API 88.03.111, MH medium); “I” with K. pneumoniae (API 88.08.056, IST medium); “I” with K. pneumoniae (API 88.08.056, MH medium); “S” in the test on K. pneumoniae (CDC 2279, IST medium); “S” in the test on K. pneumoniae (CDC 2279, MH medium). Further, the “NCCLS Category” value with S. marcescens (API 81.45.111, IST medium) is given as “I”; with S. marcescens (API 81.45.111, MH medium) it was “S”; in the test on S. marcescens (API 81.47.110, IST medium), “R”; in the test with S. marcescens (API 81.47.110, MH medium), “R”. In addition, the MIC in the test with K. pneumoniae (API 88.03.111, IST medium) was 1 µg/mL; with K. pneumoniae (API 88.03.111, MH medium) it was 1 µg/mL; in the test with K. pneumoniae (API 88.08.056, IST medium), 4 µg/mL; in the test with K. pneumoniae (API 88.08.056, MH medium), 4 µg/mL; in the test with K. pneumoniae (CDC 2279, IST medium), 0.25 µg/mL; in the test on K. pneumoniae (CDC 2279, MH medium) it was 0.25 µg/mL. In addition, the MIC was 4 µg/mL in the test with S. marcescens (API 81.45.111, IST medium); 2 µg/mL in the test on S. marcescens (API 81.45.111, MH medium); 16 µg/mL in the test on S. marcescens (API 81.47.110, IST medium); 8 µg/mL in the test on S. marcescens (API 81.47.110, MH medium).

On to `Cc1onc(-c2ccccc2)c1C(=O)N[C@@H]1C(=O)N2[C@@H]1SC(C)(C)[C@@H]2C(=O)O` [oxacillin], for which the “NCCLS Category” value in the test on S. aureus (ATCC 29213, IST medium) is “S”; with S. aureus (ATCC 29213, MH medium) it was “S”; in the test on S. aureus (CDC 2194, IST medium) it was “S”; in the test with S. aureus (CDC 2194, MH medium), “S”; with S. aureus (CDC 2215, IST medium), “S”; in the test with S. aureus (CDC 2215, MH medium) it was “S”. Moreover, the “NCCLS Category” value with S. epidermidis (CDC 2234, IST medium) is given as “S”; in the test with S. epidermidis (CDC 2234, MH medium), “R”. Also, the MIC with S. aureus (12 h, CDC 2194, IST medium) is 1 µg/mL; in the test on S. aureus (12 h, CDC 2194, MH medium), below 0.5 µg/mL; with S. aureus (12 h, CDC 2215, IST medium), 1 µg/mL; in the test with S. aureus (12 h, CDC 2215, MH medium) it was below 0.5 µg/mL; in the test on S. aureus (setting [1]) it was below 0.25 µg/mL; with S. aureus (setting [2]), below 0.25 µg/mL. The MIC stood at 2 µg/mL in the test on S. epidermidis (CDC 2234, IST medium) and 4 µg/mL with S. epidermidis (CDC 2234, MH medium).

For the compound `CCN1CCN(C(=O)N[C@@H](C(=O)N[C@@H]2C(=O)N3[C@@H]2SC(C)(C)[C@@H]3C(=O)O)c2ccccc2)C(=O)C1=O` [piperacillin], the “NCCLS Category” value with K. pneumoniae (AP 14, MH medium) is on record as “R”; in the test on K. pneumoniae (CDC 2174, IST medium) it was “S”; in the test with K. pneumoniae (CDC 2174, MH medium), “S”; in the test with K. pneumoniae (CDC 2182, IST medium), “S”; in the test on K. pneumoniae (CDC 2182, MH medium), “I”; with P. aeruginosa (AP 8, IST medium) it was “S”. The “NCCLS Category” value with P. aeruginosa (AP 8, MH medium) is given as “S”; in the test on P. aeruginosa (AP 13, IST medium), “S”; with P. aeruginosa (AP 13, MH medium), “S”; in the test on S. marcescens (CDC 2021, IST medium), “S”; with S. marcescens (CDC 2021, MH medium) it was “S”; with S. marcescens (CDC 2162, IST medium), “R”. The “NCCLS Category” value in the test on S. marcescens (CDC 2162, MH medium) is listed as “R”. The MIC amounted to 64 µg/mL with K. pneumoniae (AP 14, IST medium); 256 µg/mL in the test with K. pneumoniae (AP 14, MH medium); 8 µg/mL with K. pneumoniae (CDC 2174, IST medium); 8 µg/mL with K. pneumoniae (CDC 2174, MH medium); 16 µg/mL in the test with K. pneumoniae (CDC 2182, IST medium); 32 µg/mL in the test on K. pneumoniae (CDC 2182, MH medium). Besides, the MIC is 4 µg/mL in the test on P. aeruginosa (AP 8, IST medium); 4 µg/mL with P. aeruginosa (AP 8, MH medium); 8 to 16 µg/mL in the test on P. aeruginosa (AP 13, IST medium); 16 µg/mL in the test with P. aeruginosa (AP 13, MH medium); 2 µg/mL in the test with S. marcescens (CDC 2021, IST medium); 2 µg/mL in the test with S. marcescens (CDC 2021, MH medium). The MIC with S. marcescens (CDC 2162, IST medium) was above 256 µg/mL; in the test with S. marcescens (CDC 2162, MH medium) it was above 256 µg/mL.

With gentamicin, the “Equivalent MIC” value was found to be 0.5 µg/mL in the test with K. pneumoniae (CDC 2177, IST medium); 0.25 µg/mL in the test on K. pneumoniae (CDC 2177, MH medium); 8 µg/mL with K. pneumoniae (CDC 2249, IST medium); 8 µg/mL in the test with K. pneumoniae (CDC 2249, MH medium); 4 µg/mL in the test on K. pneumoniae (CDC 2279, IST medium); 4 µg/mL in the test with K. pneumoniae (CDC 2279, MH medium). Moreover, the “Equivalent MIC” value in the test on P. aeruginosa (CDC 2009, IST medium) was 16 to 32 µg/mL; with P. aeruginosa (CDC 2009, MH medium), 32 µg/mL; with P. aeruginosa (CDC 2239, IST medium) it was 2 µg/mL; in the test with P. aeruginosa (CDC 2239, MH medium), 2 µg/mL; in the test with P. aeruginosa (CDC 2257, IST medium) it was 0.5 to 1 µg/mL; with P. aeruginosa (CDC 2257, MH medium), 0.5 µg/mL. The “NCCLS Category” value is on record as “S” in the test with K. pneumoniae (CDC 2177, IST medium); “S” in the test with K. pneumoniae (CDC 2177, MH medium); “I” in the test with K. pneumoniae (CDC 2249, IST medium); “I” in the test on K. pneumoniae (CDC 2249, MH medium); “S” in the test with K. pneumoniae (CDC 2279, IST medium); “S” in the test with K. pneumoniae (CDC 2279, MH medium). Besides, the “NCCLS Category” value is on record as “R” in the test on P. aeruginosa (CDC 2009, IST medium); “R” with P. aeruginosa (CDC 2009, MH medium); “S” in the test with P. aeruginosa (CDC 2239, IST medium); “S” in the test with P. aeruginosa (CDC 2239, MH medium); “S” in the test on P. aeruginosa (CDC 2257, IST medium); “S” in the test with P. aeruginosa (CDC 2257, MH medium).

Source of the values: patent US5536645A, “Nutritive medium for the culture of microorganism” (priority 1993, dated 1996).
